{"source": "patent US20070264355A1", "about": "“BINARY COMPOSITIONS AND METHODS FOR STERILIZATION” (Binary, LLC, priority 2005, published 2007)", "type_in_all_cases": "cell-based", "key": {"[1]": {"system": "Staphylococcus aureus (ATCC 6538)", "assay": "Microbicidal activity against Staphylococcus aureus (suspension test, surviving CFU)", "conditions": "H2O2/H+ 0.35 mM 30 min; inoculum 2530000 CFU", "method": "Bacterial suspensions, specifically Staphylococcus aureus (ATCC 6538) in this example, were prepared by the shake flask method to achieve late log to early stationary phase growth. Bacteria were grown 24 hours in trypticase soy broth (TSB) at 35° C. The cultures were centrifuged at 4,000 rpm for 10 minutes and the supernatants removed. The pellet was collected and washed twice with sterile 0.9% normal saline. The washed microorganisms were suspended and diluted with normal saline to a 3 McFarland standard, i.e., approximately 10^9 bacteria colony forming units (CFU) per ml. Actual colony counts are confirmed by serial dilutions (10^−1 to 10^−5 or 10^−6) plated on trypticase soy agar (TSA) and incubated overnight at 35° C. One hundred microliters of organisms from a stock of 10^7 CFU/ml were used to obtain an approximate final working target inoculum of 10^6 CFU. The microbicidal test is conducted in a vial containing 1.4 ml of final reaction mixture after neutralization.\n(§1) Each solution was used alone for the individual controls. Organism suspensions were used to achieve a final target concentration of 2-3×10^6 CFU per ml. For the binary system treatments, sodium hypochlorite solution and hydrogen peroxide solution, non-acidified or acidified, were sequentially added to the microorganisms. Acidified hydrogen peroxide solution was obtained by the addition of 1.0% v/v of 0.001 N hydrochloride solution. After each addition, the resulting mixture was allowed to remain in contact with the organisms for a set amount of time at room temperature (about 22° C.), as listed in the Tables 1 and 2. At the end of the treatment time, the mixtures were neutralized with 200 to 500 microliters of thiosulfate solution (2.4%) to quench the activity of sodium hypochlorite and then treated with 100 to 200 microliters of a 1% catalase solution, containing a minimum of 100 units/ul, to quench the hydrogen peroxide activity. If needed, an appropriate volume of sterile saline was added to bring the final volume of reaction mixture to 1.4 ml after neutralization. Serial dilution plate counts were performed from the contents of each vial in sterile saline and inoculated onto TSA for quantitative culture. Plates were then incubated at 37° C. and counts taken at 24 hours.\nAfter an additional 30 minutes, the binary system mixture was then neutralized using 2.4% thiosulfate followed by 1% catalase as described in the Methods Section."}, "[2]": {"system": "Bacillus subtilis (ATCC 19659) spores", "assay": "Microbicidal activity against Bacillus subtilis spores (suspension test, surviving CFU)", "conditions": "H2O2/H+ 35.25 mM 30 min; inoculum 1120000 CFU", "from_the_text": "as §1\nSuspensions of Bacillus subtilis (ATCC 19659) containing 100% spores, as confirmed by microscopy, were obtained by washing the spun-down cells with 50% ethanol to eliminate the vegetative form. Starting inoculum of approximately 1-3×10^6 CFU was used as in Example 1.\n[…] The binary system was neutralized 30 minutes after addition of hydrogen peroxide using 2.4% thiosulfate and 1% catalase as described in Example 1."}, "Staphylococcus aureus": {"system": "Staphylococcus aureus", "assay": "Microbicidal activity of commonly used antiseptics against Staphylococcus aureus", "conditions": "inoculum 1475000 CFU", "method": "(§2) The performance of commonly used antiseptics was tested against Bacillus subtilis and Staphylococcus aureus, following the general procedure of Example 1, to assess the improvement provided by the binary system over these compounds.\n[…] Chlorhexidine and IPA were neutralized with 500 microliters of a solution containing 3% Saponin, 3% Tween-80, 0.3% lecithin, and 0.1% histidine. Povidone Iodine was neutralized with 500 microliters of thiosulfate solution (2.4%)."}, "Bacillus subtilis spores": {"system": "Bacillus subtilis spores", "assay": "Microbicidal activity of commonly used antiseptics against Bacillus subtilis spores", "method": "as §2\nAfter 60 minutes of exposure to the organisms, the individual antiseptics, indicated in Table 15 and Table 16, were neutralized using the corresponding neutralizing solutions prepared as listed below in Materials. Chlorhexidine and IPA were neutralized with 500 microliters of a solution containing 3% Saponin, 3% Tween-80, 0.3% lecithin, and 0.1% histidine. Povidone Iodine was neutralized with 500 microliters of thiosulfate solution (2.4%)."}, "[3]": {"conditions": "IPA 0.07% 60 min, inoculum 1865000 CFU"}, "[4]": {"conditions": "IPA 0.70% 60 min, inoculum 1865000 CFU"}, "[5]": {"conditions": "IPA 7% 60 min, inoculum 1865000 CFU"}, "[6]": {"conditions": "IPA 70% 60 min, inoculum 1865000 CFU"}, "[7]": {"conditions": "PVI 10.00% 60 min, inoculum 1120000 CFU"}}, "data": [{"compound": "OO", "note": "[H2O2/H+, hydrogen peroxide]", "values": [{"measurement": "Log 10 (CFU + 1) Survivors", "setting": "[1]", "result": 6.2}, {"measurement": "Log Reduction", "setting": "[1]", "result": 0.2}, {"measurement": "Total Viability (CFU)", "setting": "[1]", "result": 1708000, "unit": "CFU"}, {"measurement": "Log 10 (CFU + 1) Survivors", "setting": "[2]", "result": 6.2}, {"measurement": "Log Reduction", "setting": "[2]", "result": "−0.2"}, {"measurement": "Total Viability (CFU)", "setting": "[2]", "result": 1624000, "unit": "CFU"}]}, {"compound": "CC(C)O", "note": "[IPA, Isopropyl Alcohol]", "values": [{"measurement": "Log 10 (CFU + 1) Survivors", "setting": "Staphylococcus aureus; IPA 0.07% 15 min", "result": 6.3}, {"measurement": "Log Reduction", "setting": "Staphylococcus aureus; IPA 0.07% 15 min", "result": "−0.1"}, {"measurement": "Total Viability (CFU)", "setting": "Staphylococcus aureus; IPA 0.07% 15 min", "result": 1932000, "unit": "CFU"}, {"measurement": "Log 10 (CFU + 1) Survivors", "setting": "Staphylococcus aureus; IPA 0.70% 15 min", "result": 6.3}, {"measurement": "Log Reduction", "setting": "Staphylococcus aureus; IPA 0.70% 15 min", "result": "−0.1"}, {"measurement": "Total Viability (CFU)", "setting": "Staphylococcus aureus; IPA 0.70% 15 min", "result": 1988000, "unit": "CFU"}, {"measurement": "Log 10 (CFU + 1) Survivors", "setting": "Staphylococcus aureus; IPA 7% 15 min", "result": 6.3}, {"measurement": "Log Reduction", "setting": "Staphylococcus aureus; IPA 7% 15 min", "result": "−0.1"}, {"measurement": "Total Viability (CFU)", "setting": "Staphylococcus aureus; IPA 7% 15 min", "result": 1834000, "unit": "CFU"}, {"measurement": "Log 10 (CFU + 1) Survivors", "setting": "Staphylococcus aureus; IPA 70% 15 min", "result": 0.0}, {"measurement": "Log Reduction", "setting": "Staphylococcus aureus; IPA 70% 15 min", "result": 6.2}, {"measurement": "Total Viability (CFU)", "setting": "Staphylococcus aureus; IPA 70% 15 min", "result": 0, "unit": "CFU"}, {"measurement": "Log 10 (CFU + 1) Survivors", "setting": "Bacillus subtilis spores; [3]", "result": 6.4}, {"measurement": "Log Reduction", "setting": "Bacillus subtilis spores; [3]", "result": "−0.1"}, {"measurement": "Total Viability (CFU)", "setting": "Bacillus subtilis spores; [3]", "result": 2422000, "unit": "CFU"}, {"measurement": "Log 10 (CFU + 1) Survivors", "setting": "Bacillus subtilis spores; [4]", "result": 6.3}, {"measurement": "Log Reduction", "setting": "Bacillus subtilis spores; [4]", "result": "−0.1"}, {"measurement": "Total Viability (CFU)", "setting": "Bacillus subtilis spores; [4]", "result": 2170000, "unit": "CFU"}, {"measurement": "Log 10 (CFU + 1) Survivors", "setting": "Bacillus subtilis spores; [5]", "result": 6.4}, {"measurement": "Log Reduction", "setting": "Bacillus subtilis spores; [5]", "result": "−0.1"}, {"measurement": "Total Viability (CFU)", "setting": "Bacillus subtilis spores; [5]", "result": 2352000, "unit": "CFU"}, {"measurement": "Log 10 (CFU + 1) Survivors", "setting": "Bacillus subtilis spores; [6]", "result": 6.3}, {"measurement": "Log Reduction", "setting": "Bacillus subtilis spores; [6]", "result": 0.0}, {"measurement": "Total Viability (CFU)", "setting": "Bacillus subtilis spores; [6]", "result": 2044000, "unit": "CFU"}, {"measurement": "activity against B. subtilis spores", "setting": "Bacillus subtilis spores; any concentration tested, 60 min", "result": "did not demonstrate activity"}]}, {"compound": "Povidone Iodine [PVI]", "values": [{"measurement": "Log 10 (CFU + 1) Survivors", "setting": "Staphylococcus aureus; PVI 10.00% 15 min", "result": 0.0}, {"measurement": "Log Reduction", "setting": "Staphylococcus aureus; PVI 10.00% 15 min", "result": 6.2}, {"measurement": "Total Viability (CFU)", "setting": "Staphylococcus aureus; PVI 10.00% 15 min", "result": 0, "unit": "CFU"}, {"measurement": "Log 10 (CFU + 1) Survivors", "setting": "Bacillus subtilis spores; [7]", "result": 5.3}, {"measurement": "Log Reduction", "setting": "Bacillus subtilis spores; [7]", "result": 0.8}, {"measurement": "Total Viability (CFU)", "setting": "Bacillus subtilis spores; [7]", "result": 189000, "unit": "CFU"}]}]}
